# Laboratory results taken from the supplement of paper PMC10307832.
# Assays:
# Assay in all cases: relative viability (nuclei count vs DMSO), 5 days (fraction); higher = more cells survive
# 201T = test system: 201T
# Outline: (§1)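 Lung cancer cell lines were pin-tool dosed in 1536-well plates on the day after seeding, with either a lone drug or a fixed anchor-drug dose plus five library-drug doses (not always all listed) in √10 steps. Nuclei were counted on 4× images after 5 days. Relative viability is the ratio of treated-well to vehicle-well nuclei counts, with each value a median of duplicate plates.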
# COR-L23 = test system: COR-L23
# Outline: as §1
# EPLC-272H = test system: EPLC-272H
# Outline: as §1
# H3255 = test system: H3255
# Outline: as §1
# HCC-15 = test system: HCC-15
# Outline: as §1
# LOU-NH91 = test system: LOU-NH91
# Outline: as §1
# NCI-H1650 = test system: NCI-H1650
# Outline: as §1
# NCI-H1734 = test system: NCI-H1734
# Outline: as §1
# NCI-H1793 = test system: NCI-H1793
# Outline: as §1
# NCI-H2023 = test system: NCI-H2023
# Outline: as §1
# NCI-H2170 = test system: NCI-H2170
# Outline: as §1
# NCI-H2347 = test system: NCI-H2347
# Outline: as §1
# NCI-H2405 = test system: NCI-H2405
# Outline: as §1
# NCI-H3122 = test system: NCI-H3122
# Outline: as §1
# NCI-H322M = test system: NCI-H322M
# Outline: as §1
# NCI-H441 = test system: NCI-H441
# Outline: as §1
# NCI-H520 = test system: NCI-H520
# Outline: as §1
# NCI-H647 = test system: NCI-H647
# Outline: as §1
# PC-14 = test system: PC-14
# Outline: as §1
# SW 900 = test system: SW 900
# Outline: as §1
# UMC-11 = test system: UMC-11
# Outline: as §1
structure (smiles),measurement,setting,value
O=c1cc(-c2cccc3c2Sc2ccccc2S3)oc(N2CCOCC2)c1 + CC(=O)Nc1cccc(-n2c(=O)n(C3CC3)c(=O)c3c(Nc4ccc(I)cc4F)n(C)c(=O)c(C)c32)c1 [Trametinib] (partner 0.02 µM),relative viability,201T; first compound 0.08 µM,0.722
same,relative viability,201T; first compound 0.253 µM,0.735
same,relative viability,201T; first compound 0.8 µM,0.727
same,relative viability,201T; first compound 2.53 µM,0.673
same,relative viability,201T; first compound 8 µM,0.686
same,relative viability,COR-L23; first compound 0.08 µM,0.593
same,relative viability,COR-L23; first compound 0.253 µM,0.689
same,relative viability,COR-L23; first compound 0.8 µM,0.51
same,relative viability,COR-L23; first compound 2.53 µM,0.592
same,relative viability,COR-L23; first compound 8 µM,0.689
same,relative viability,EPLC-272H; first compound 0.08 µM,0.254
same,relative viability,EPLC-272H; first compound 0.253 µM,0.293
same,relative viability,EPLC-272H; first compound 0.8 µM,0.238
same,relative viability,EPLC-272H; first compound 2.53 µM,0.28
same,relative viability,EPLC-272H; first compound 8 µM,0.28
same,relative viability,H3255; first compound 0.08 µM,0.725
same,relative viability,H3255; first compound 0.253 µM,0.588
same,relative viability,H3255; first compound 0.8 µM,0.681
same,relative viability,H3255; first compound 2.53 µM,0.543
same,relative viability,H3255; first compound 8 µM,0.561
same,relative viability,HCC-15; first compound 0.08 µM,0.362
same,relative viability,HCC-15; first compound 0.253 µM,0.454
same,relative viability,HCC-15; first compound 0.8 µM,0.369
same,relative viability,HCC-15; first compound 2.53 µM,0.363
same,relative viability,HCC-15; first compound 8 µM,0.38
same,relative viability,LOU-NH91; first compound 0.08 µM,0.772
same,relative viability,LOU-NH91; first compound 0.253 µM,0.884
same,relative viability,LOU-NH91; first compound 0.8 µM,0.732
same,relative viability,LOU-NH91; first compound 2.53 µM,0.719
same,relative viability,LOU-NH91; first compound 8 µM,0.777
same,relative viability,NCI-H1650; first compound 0.08 µM,0.516
same,relative viability,NCI-H1650; first compound 0.253 µM,0.648
same,relative viability,NCI-H1650; first compound 0.8 µM,0.503
same,relative viability,NCI-H1650; first compound 2.53 µM,0.497
same,relative viability,NCI-H1650; first compound 8 µM,0.622
same,relative viability,NCI-H1734; first compound 0.08 µM,0.656
same,relative viability,NCI-H1734; first compound 0.253 µM,0.72
same,relative viability,NCI-H1734; first compound 0.8 µM,0.69
same,relative viability,NCI-H1734; first compound 8 µM,0.697
same,relative viability,NCI-H1793; first compound 0.08 µM,0.262
same,relative viability,NCI-H1793; first compound 0.253 µM,0.458
same,relative viability,NCI-H1793; first compound 0.8 µM,0.448
same,relative viability,NCI-H1793; first compound 2.53 µM,0.376
same,relative viability,NCI-H1793; first compound 8 µM,0.346
same,relative viability,NCI-H2023; first compound 0.08 µM,0.564
same,relative viability,NCI-H2023; first compound 0.253 µM,0.647
same,relative viability,NCI-H2023; first compound 0.8 µM,0.6
same,relative viability,NCI-H2023; first compound 2.53 µM,0.534
same,relative viability,NCI-H2023; first compound 8 µM,0.426
same,relative viability,NCI-H2170; first compound 0.08 µM,0.996
same,relative viability,NCI-H2170; first compound 0.253 µM,1.08
same,relative viability,NCI-H2170; first compound 0.8 µM,1.06
same,relative viability,NCI-H2170; first compound 2.53 µM,0.816
same,relative viability,NCI-H2170; first compound 8 µM,1.01
same,relative viability,NCI-H2347; first compound 0.08 µM,0.283
same,relative viability,NCI-H2347; first compound 0.253 µM,0.266
same,relative viability,NCI-H2347; first compound 0.8 µM,0.264
same,relative viability,NCI-H2347; first compound 2.53 µM,0.27
same,relative viability,NCI-H2347; first compound 8 µM,0.295
same,relative viability,NCI-H2405; first compound 0.08 µM,0.589
same,relative viability,NCI-H2405; first compound 0.253 µM,0.673
same,relative viability,NCI-H2405; first compound 0.8 µM,0.599
same,relative viability,NCI-H2405; first compound 2.53 µM,0.534
same,relative viability,NCI-H2405; first compound 8 µM,0.577
same,relative viability,NCI-H3122; first compound 0.08 µM,0.259
same,relative viability,NCI-H3122; first compound 0.253 µM,0.299
same,relative viability,NCI-H3122; first compound 0.8 µM,0.314
same,relative viability,NCI-H3122; first compound 2.53 µM,0.193
same,relative viability,NCI-H3122; first compound 8 µM,0.292
same,relative viability,NCI-H322M; first compound 0.08 µM,0.52
same,relative viability,NCI-H322M; first compound 0.253 µM,0.558
same,relative viability,NCI-H322M; first compound 0.8 µM,0.591
same,relative viability,NCI-H322M; first compound 2.53 µM,0.443
same,relative viability,NCI-H322M; first compound 8 µM,0.529
same,relative viability,NCI-H441; first compound 0.08 µM,0.34
same,relative viability,NCI-H441; first compound 0.253 µM,0.527
same,relative viability,NCI-H441; first compound 0.8 µM,0.55
same,relative viability,NCI-H441; first compound 2.53 µM,0.465
same,relative viability,NCI-H441; first compound 8 µM,0.424
same,relative viability,NCI-H520; first compound 0.08 µM,0.566
same,relative viability,NCI-H520; first compound 0.253 µM,0.741
same,relative viability,NCI-H520; first compound 0.8 µM,0.78
same,relative viability,NCI-H520; first compound 2.53 µM,0.776
same,relative viability,NCI-H520; first compound 8 µM,0.637
same,relative viability,NCI-H647; first compound 0.08 µM,0.452
same,relative viability,NCI-H647; first compound 0.253 µM,0.543
same,relative viability,NCI-H647; first compound 0.8 µM,0.405
same,relative viability,NCI-H647; first compound 2.53 µM,0.376
same,relative viability,NCI-H647; first compound 8 µM,0.418
same,relative viability,PC-14; first compound 0.08 µM,0.748
same,relative viability,PC-14; first compound 0.253 µM,0.828
same,relative viability,PC-14; first compound 0.8 µM,0.728
same,relative viability,PC-14; first compound 2.53 µM,0.827
same,relative viability,PC-14; first compound 8 µM,0.718
same,relative viability,SW 900; first compound 0.253 µM,0.93
same,relative viability,SW 900; first compound 0.8 µM,0.777
same,relative viability,SW 900; first compound 2.53 µM,0.814
same,relative viability,SW 900; first compound 8 µM,0.816
same,relative viability,UMC-11; first compound 0.08 µM,0.719
same,relative viability,UMC-11; first compound 0.253 µM,0.827
same,relative viability,UMC-11; first compound 0.8 µM,0.78
same,relative viability,UMC-11; first compound 2.53 µM,0.638
same,relative viability,UMC-11; first compound 8 µM,1.03
